Marks after values point to notes of the source that are not given here.
Experiment: Pharmacokinetic assay in rats, plasma LIRA by UPLC-MS/MS
Type: in vivo
Details: male Wistar rats, subcutaneous, single dose 200 µg/kg of LIRA, mean ± SD, n = 6
Excerpt: Ultra-performance liquid chromatography (Acquity UPLC© Waters, Milford, MA, USA), coupled with a triple quadrupole mass spectrometer (XEVO-TQD, Waters®) equipped with a Z sprayTM electrospray ionisation source (Waters®, Milford, MA, USA), was employed to detect, and quantify LIRA levels in rat plasma after treatment. An ACQUITY UPLC BEH C18 reversed-phase chromatographic column (50 mm × 2.1 mm; 1.7 µm) was used, with a mobile phase composed of acetonitrile and ultrapure water, both acidified with 0.1% formic acid, eluted in gradient mode, with varying proportions (20/80, 45/55, 60/40, 80/20, 90/10, 80/20, 30/70, 20/80) at specific time intervals (0, 1.5, 2.0, 2.5, 3.0, 3.5, 4.5, 6.0 min), with a flow rate of 0.3 mL/min, injection volume of 2 µL, with a total analysis time of 7.5 min. The samples were maintained at a temperature of 10 °C in the sampler, while the column oven was maintained at 40 °C. Detection by mass spectrometry was carried out in positive electrospray ionisation (ESI+) mode, in multiple reaction monitoring (MRM) mode, with a source temperature of 150 °C, capillary voltage equal to 3.5 kV, desolvation temperature of 600 °C, desolvation flow of 1000 L/h and gas flow in the cone of 50 L/h. […] The transitions set at m/z 938.7 → 1064.1 for LIRA and m/z 1184.7 → 454.4 for insulin detemir. […]

Cl: 0.183 ± 0.015 ^b L/h
Compound: CCCCCCCCCCCCCCCC(=O)N[C@@H](CCC(=O)NCCCC[C@H](NC(=O)[C@H](C)NC(=O)[C@H](C)NC(=O)[C@H](CCC(N)=O)NC(=O)CNC(=O)[C@H](CCC(=O)O)NC(=O)[C@H](CC(C)C)NC(=O)[C@H](Cc1ccc(O)cc1)NC(=O)[C@H](CO)NC(=O)[C@H](CO)NC(=O)[C@@H](NC(=O)[C@H](CC(=O)O)NC(=O)[C@H](CO)NC(=O)[C@@H](NC(=O)[C@H](Cc1ccccc1)NC(=O)[C@@H](NC(=O)CNC(=O)[C@H](CCC(=O)O)NC(=O)[C@H](C)NC(=O)[C@@H](N)Cc1cnc[nH]1)[C@@H](C)O)[C@@H](C)O)C(C)C)C(=O)N[C@@H](CCC(=O)O)C(=O)N[C@@H](Cc1ccccc1)C(=O)N[C@H](C(=O)N[C@@H](C)C(=O)N[C@@H](Cc1c[nH]c2ccccc12)C(=O)N[C@@H](CC(C)C)C(=O)N[C@H](C(=O)N[C@@H](CCCNC(=N)N)C(=O)NCC(=O)N[C@@H](CCCNC(=N)N)C(=O)NCC(=O)O)C(C)C)[C@@H](C)CC)C(=O)O [Free LIRA, Liraglutide]

Reference: article PMC11125159 (Pharmaceutics, 2024)
